Assay results published in patent US20070287738A1, “Substituted Cyanopyridines as protein kinase inhibitors” (priority 2006, published 2007).

Legend:
Type in all cases: biochemical
[1] = biological target: T1, purified recombinant active kinase domain of full length PKC theta (amino acids 362-706) (Homo sapiens, UniProt Q04759); assay: Radioactive kinase assay for inhibition of the active kinase domain (KD) of PKCθ; details: radioactive (ATP γ P33) assay, average value
T1 construct: active kinase domain of full length PKC theta (amino acids 362-706)
T1 sequence (Q04759 362-706): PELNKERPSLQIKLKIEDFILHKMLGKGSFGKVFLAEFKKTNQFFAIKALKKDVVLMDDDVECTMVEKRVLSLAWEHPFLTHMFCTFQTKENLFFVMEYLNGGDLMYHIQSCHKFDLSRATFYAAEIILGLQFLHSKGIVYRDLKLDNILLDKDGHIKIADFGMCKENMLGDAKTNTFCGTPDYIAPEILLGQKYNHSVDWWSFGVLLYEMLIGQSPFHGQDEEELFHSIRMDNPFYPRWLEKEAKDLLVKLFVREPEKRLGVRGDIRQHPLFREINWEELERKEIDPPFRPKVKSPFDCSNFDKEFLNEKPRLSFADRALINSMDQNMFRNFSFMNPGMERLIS
Experimental: A Radioactive Kinase Assay for Inhibition of the Active Kinase Domain (KD) of PKCθ
(§1) This assay is based on the phosphorylation of a biotinylated substrate by a kinase utilizing radiolabeled ATP (ATP γ P33). The substrate was a biotinylated peptide with a sequence of biotin-FARKGSLRQ-C(O)NH2. The enzyme was purified recombinant active kinase domain of full length PKC theta (amino acids 362-706). The assay buffer was composed of 100 mM Hepes, pH7.5, 2 mM MgCl2, 20 mM β-glycerophosphate and 0.008% TritonX 100. A reaction mixture of ATP, ATP γ P33 (PerkinElmer), DTT, and the enzyme was prepared in the assay buffer and added to a 96-well polypropylene plate. The compound (diluted in DMSO in a separate 96-well polypropylene plate) was added to the reaction mixture and incubated at room temperature. Following the incubation, the peptide substrate was added to the reaction mixture to initiate the enzymatic reaction. The reaction was terminated with the addition of a stop solution (100 mM EDTA, 0.2% TritonX100, and 20 mM NaHPO4) and transferred from the assay plate to a washed streptavidin-coated 96-well scintiplate (PerkinElmer). The scintiplate was incubated at room temperature, washed in PBS with 0.1% TritonX 100, and counted in the 1450 Microbeta Trilux (Wallac, Version 2.60). Counts were recorded for each well as corrected counts per minute (CCPM). The counts were considered corrected because they were adjusted according to a P33 normalization protocol, which corrects for efficiency and background differences between the instrument detectors (software version 4.40.01).

[2] = biological target: T2, purified recombinant full length PKC theta (Panvera, P2996) (Homo sapiens, UniProt Q04759); assay: Radioactive kinase assay for inhibition of full length (FL) PKCθ; details: full length enzyme; radioactive (ATP γ P33) assay; average value
T2 construct: purified recombinant full length PKC theta (Panvera, P2996); purchased Panvera P2996
T2 sequence (Q04759 whole entry): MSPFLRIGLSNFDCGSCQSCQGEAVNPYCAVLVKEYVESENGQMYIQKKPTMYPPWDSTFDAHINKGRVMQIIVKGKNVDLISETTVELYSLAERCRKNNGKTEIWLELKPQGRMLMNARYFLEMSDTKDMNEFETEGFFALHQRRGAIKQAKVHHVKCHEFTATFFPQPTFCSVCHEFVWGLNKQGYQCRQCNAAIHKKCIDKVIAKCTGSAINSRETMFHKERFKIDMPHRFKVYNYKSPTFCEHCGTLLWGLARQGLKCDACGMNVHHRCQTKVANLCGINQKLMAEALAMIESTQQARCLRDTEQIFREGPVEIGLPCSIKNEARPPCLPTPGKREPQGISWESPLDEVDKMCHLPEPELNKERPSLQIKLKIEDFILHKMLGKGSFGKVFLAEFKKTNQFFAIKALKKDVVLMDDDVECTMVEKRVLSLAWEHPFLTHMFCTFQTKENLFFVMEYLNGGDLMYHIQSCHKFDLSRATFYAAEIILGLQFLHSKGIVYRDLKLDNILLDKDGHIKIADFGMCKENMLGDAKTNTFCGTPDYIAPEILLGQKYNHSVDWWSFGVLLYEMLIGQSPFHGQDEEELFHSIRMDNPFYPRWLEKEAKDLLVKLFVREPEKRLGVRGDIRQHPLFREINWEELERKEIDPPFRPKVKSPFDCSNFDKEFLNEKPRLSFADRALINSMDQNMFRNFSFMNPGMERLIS
Experimental: as §1
A Radioactive Kinase Assay for Inhibition of Full Length (FL) PKCθ Inhibitors
This assay differs from what was described above in that the enzyme used was purified recombinant full length PKC theta (Panvera, P2996).

[3] = biological target: T3, human PKCθ full length enzyme (Homo sapiens, UniProt Q04759); assay: PKCθ IMAP assay; details: full length enzyme 1 nM; ATP 6 μM; peptide 100 nM; FP readout; average value
T3 construct: human PKCθ full length enzyme (Panvera Cat# P2996); purchased Panvera P2996
T3 sequence (Q04759 whole entry): as above
Experimental: The materials used include the following: human PKCθ full length enzyme (Panvera Cat# P2996); substrate peptide: 5FAM-RFARKGSLRQKNV-OH (Molecular Devices, RP7032); ATP (Sigma Cat # A2383); DTT (Pierce, 20291); 5× kinase reaction buffer (Molecular Devices, R7209); 5× binding buffer A (Molecular Devices, R7282), 5× binding buffer B (Molecular Devices, R7209); IMAP Beads (Molecular Devices, R7284); and 384-well plates (Corning Costar, 3710).
The reaction buffer was prepared by diluting the 5× stock reaction buffer and adding DTT to obtain a concentration of 3.0 mM. The binding buffer was prepared by diluting the 5× binding buffer A. A master mix solution was prepared using a 90% dilution of the reaction buffer containing 2× ATP (12 uM) and 2× peptide (200 nm). Compounds were diluted in DMSO to 20× of the maximum concentration for the IC50 measurement. 27 μl of the master mix solution for each IC50 curve was added to the first column in a 384-well plate and 3 μl of 20× compound in DMSO was added to each well. The final concentration of compound was 2× and 10% DMSO. DMSO was added to the rest of the master mix to increase the concentration to 10%. 10 μl of the master mix containing 10% DMSO was added to the rest of the wells on the plate except the 2nd column. 20 μl was transferred from the first column to the 2nd column.
The compounds were serially diluted in 2:1 ratio starting from the 2nd column. A 2× (2 nM) PKCθ solution was made in the reaction buffer. 10 μl of the PKCθ solution was added to every well to achieve these final concentrations: PKCθ—1 nM; ATP—6 μM; peptide—100 nM; DMSO—5%. Samples were incubated for 25 minutes at room temperature. The binding reagent was prepared by diluting the beads in 1× binding buffer to 800:1. 50 μl of the binding reagent was added to every well and incubated for 20 minutes. FP was measured using Envision2100 (PerkinElmer Life Sciences). Wells with no ATPs and wells with no enzymes were used as controls.

| IC50 [1] [µM] | IC50 [2] [nM] | IC50 [3] [nM] | Compound |
| --- | --- | --- | --- |
|  | 500 |  | COc1cc(Nc2c(C#N)cncc2-c2cccc(OCCCl)c2)c(Cl)cc1Cl [Compound 150, 5-[3-(2-chloroethoxy)phenyl]-4-[(2,4-dichloro-5-methoxyphenyl)amino]nicotinonitrile] |
|  | 7090 |  | COCCOc1ccc(-c2cncc(C#N)c2Nc2cc(OC)c(Cl)cc2Cl)cc1OC [Compound 149, 4-[(2,4-dichloro-5-methoxyphenyl)amino]-5-[3-methoxy-4-(2-methoxyethoxy)phenyl]nicotinonitrile] |
|  | 7100 |  | COc1cc(Nc2c(C#N)cncc2-c2cccc(OCCN3CCCC3)c2)c(Cl)cc1Cl [Compound 151, 4-[(2,4-dichloro-5-methoxyphenyl)amino]-5-[3-(2-pyrrolidin-1-ylethoxy)phenyl]nicotinonitrile] |
|  | 160 | 100 | COc1ccc(-c2cncc(C#N)c2Nc2cc(OCCO)c(Cl)cc2Cl)cc1OC [Compound 141, 4-{[2,4-dichloro-5-(2-hydroxyethoxy)phenyl]amino}-5-(3,4-dimethoxyphenyl)nicotinonitrile] |
| 158 |  |  | N#Cc1cncc(-c2cccc([N+](=O)[O-])c2)c1Nc1ccc(F)c(Cl)c1 [Compound 144, 4-[(3-chloro-4-fluorophenyl)amino]-5-(3-nitrophenyl)nicotinonitrile] |
|  | 520 |  | COCCOc1cc(-c2cncc(C#N)c2Nc2cc(OC)c(Cl)cc2Cl)ccc1OC [Compound 148, 4-[(2,4-dichloro-5-methoxyphenyl)amino]-5-[4-methoxy-3-(2-methoxyethoxy)phenyl]nicotinonitrile] |

More lines, now with the values behind:

| Compound | IC50 [1] [µM] | IC50 [2] [nM] | IC50 [3] [nM] |
| --- | --- | --- | --- |
| COc1ccc(-c2cncc(C#N)c2Nc2ccc(Cl)c(Cl)c2)cc1OC [Compound 115, 4-[(3,4-dichlorophenyl)amino]-5-(3,4-dimethoxyphenyl)nicotinonitrile] | 4.26 | 380 |  |
| COc1ccc(-c2cncc(C#N)c2Nc2cc(OC)c(OC)c(OC)c2)cc1OC [Compound 119, 5-(3,4-dimethoxyphenyl)-4-[(3,4,5-trimethoxyphenyl)amino]nicotinonitrile] | 11.7 |  | 1950 |
| CCOc1cc(Nc2c(C#N)cncc2-c2ccc(OC)c(OC)c2)c(Cl)cc1Cl [Compound 138, 4-[(2,4-dichloro-5-ethoxyphenyl)amino]-5-(3,4-dimethoxyphenyl)nicotinonitrile] |  | 320 |  |
| COc1cc(Nc2c(C#N)cncc2-c2ccc(OC)c(OC)c2)c(Cl)cc1Cl [Compound 137, 4-[(2,4-dichloro-5-methoxyphenyl)amino]-5-(3,4-dimethoxyphenyl)nicotinonitrile] | 0.19 | 160 | 180 |
| CCCCOc1cc(Nc2c(C#N)cncc2-c2ccc(OC)c(OC)c2)c(Cl)cc1Cl [Compound 140, 4-[(5-butoxy-2,4-dichlorophenyl)amino]-5-(3,4-dimethoxyphenyl)nicotinonitrile] |  | 9750 |  |
| COc1ccc(-c2cncc(C#N)c2Nc2ccc(C)cc2C)cc1OC [Compound 109, 5-(3,4-dimethoxyphenyl)-4-[(2,4-dimethylphenyl)amino]nicotinonitrile] | 0.81 |  |  |
| COc1ccc(-c2cncc(C#N)c2Nc2ccc(C)cc2)cc1OC [Compound 118, 5-(3,4-dimethoxyphenyl)-4-[(4-methylphenyl)amino]nicotinonitrile] | 4.44 |  |  |
| CCCOc1cc(Nc2c(C#N)cncc2-c2ccc(OC)c(OC)c2)c(Cl)cc1Cl [Compound 139, 4-[(2,4-dichloro-5-propoxyphenyl)amino]-5-(3,4-dimethoxyphenyl)nicotinonitrile] |  | 8000 |  |
